We go through 41 compounds from patent publication US7829665B2 (priority 2005, dated 2010).

Each structure is given as a SMILES string. Like-named read-outs stand apart in the source and are kept apart here.

In the assay the target is T1, full-length NS3/NS4A-2 (HCV NS3 protease) (Hepatitis C virus genotype 1a, UniProt P27958).
T1 construct: Recombinant E. coli or Baculovirus full-length NS3 was diluted to 3.33 μM with assay buffer; made in house; host or cells: E. coli or baculovirus (BV) expression system
T1 sequence (P27958 1027-1657): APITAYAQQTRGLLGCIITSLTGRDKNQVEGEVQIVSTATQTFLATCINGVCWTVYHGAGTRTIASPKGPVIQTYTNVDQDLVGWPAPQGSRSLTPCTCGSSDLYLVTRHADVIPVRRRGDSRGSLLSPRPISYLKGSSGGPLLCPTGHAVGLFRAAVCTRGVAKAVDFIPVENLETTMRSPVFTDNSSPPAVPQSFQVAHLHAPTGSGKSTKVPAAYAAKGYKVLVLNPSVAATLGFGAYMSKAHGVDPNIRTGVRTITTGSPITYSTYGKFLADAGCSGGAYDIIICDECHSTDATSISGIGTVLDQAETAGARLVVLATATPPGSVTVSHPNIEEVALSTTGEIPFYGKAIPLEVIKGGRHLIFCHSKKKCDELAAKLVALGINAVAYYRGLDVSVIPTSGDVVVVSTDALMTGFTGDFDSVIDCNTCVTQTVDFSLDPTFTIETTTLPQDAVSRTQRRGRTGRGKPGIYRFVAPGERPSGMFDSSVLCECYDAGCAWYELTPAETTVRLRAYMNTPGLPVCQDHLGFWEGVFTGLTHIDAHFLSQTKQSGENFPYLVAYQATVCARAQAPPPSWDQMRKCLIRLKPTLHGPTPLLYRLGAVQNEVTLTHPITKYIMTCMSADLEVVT
Description: NS3-NS4 protease assay / NS3 inhibition assay (RETS1 substrate, fluorescence kinetic read). It is filed as biochemical. The method, boiled down: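 Full-length NS3 from E. coli (2 nM in assay) or baculovirus (3 nM) was precomplexed with excess NS4A-2 peptide, then preincubated 10 min at room temperature with serially diluted compounds starting at 50 microM. Reaction was started with RETS1 substrate at 8 μM before addition and read kinetically for 30 min (ex 335/em 495 nm). Four-parameter IC50s were converted to Ki by Cheng-Prusoff using Km 2.03 μM (E. coli) or 1.74 μM (BV).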

The mark [1] stands for this setting: recombinant E. coli or Baculovirus full-length NS3 with NS4A-2, read-out: NS3-NS4 IC50.
[2] abbreviates: Table 22, read-out: NS3-NS4 IC50.

Take `CC(C)(C)OC(=O)N[C@H]1CCCCC/C=C\[C@@H]2C[C@@]2(C(=O)NS(=O)(=O)c2ccc(C#N)cc2)NC(=O)[C@@H]2CCCN2C1=O` [Compound 2134]: under setting [1], the IC50 is below 1 µM. `CC(C)(C)OC(=O)N[C@H]1CCCCC/C=C\[C@@H]2C[C@@]2(C(=O)NS(=O)(=O)Cc2ccccc2)NC(=O)[C@@H]2CCCN2C1=O` [Compound 2135]: under setting [1], the IC50 was below 1 µM. Consider `Cc1ccc([S@@+]([O-])NC(=O)[C@@]23C[C@H]2/C=C\CCCCC[C@H](NC(=O)OC(C)(C)C)C(=O)N2CCC[C@H]2C(=O)N3)cc1` [Compound 2403], for which the IC50 under setting [1] was below 1 µM. Turning to `CC(C)S(=O)(=O)NC(=O)[C@@]12C[C@H]1/C=C\CCCCC[C@H](NC(=O)OC1CCCC1)C(=O)N1C[C@H](OC(=O)N3CCc4ccccc4C3)C[C@H]1C(=O)N2` [Compound 118], the IC50 under setting [1] is below 0.1 µM. Same read-out and setting: as for `CC(C)(C)OC(=O)N[C@H]1CCCCC/C=C\[C@@H]2C[C@@]2(C(=O)NS(=O)(=O)N(CCC#N)C2CC2)NC(=O)[C@@H]2CCCN2C1=O` [Compound 2210], the figure is below 1 µM. Take `CC(C)(C)OC(=O)N[C@H]1CCCCC/C=C\[C@@H]2C[C@@]2(C(=O)NS(=O)(=O)NCc2ccccn2)NC(=O)[C@@H]2CCCN2C1=O` [Compound 425]: the IC50 under setting [1] was above 10 µM. On to `CC(C)(C)OC(=O)N[C@H]1CCCCC/C=C\[C@@H]2C[C@@]2(C(=O)NCC#N)NC(=O)[C@@H]2CCCN2C1=O` [Compound 2322], for which the IC50 under setting [2] is below 0.1 µM. `CC(C)(C)OC(=O)N[C@H]1CCCCC/C=C\[C@@H]2C[C@@]2(C(=O)NS(=O)(=O)Nc2ccc(C(F)(F)F)cc2)NC(=O)[C@@H]2CCCN2C1=O` [Compound 2235]: the IC50 under setting [1] was below 1 µM.

Turning to `CC(C)(C)OC(=O)N[C@H]1CCCCCCC[C@@H]2C[C@@]2(C(=O)O)NC(=O)C2Cc3ccccc3CN2C1=O` (stereo partly drawn) [Compound 2011, (1aR,9S,19aR)-9-(tert-butoxycarbonyl)-10,18-dioxo-1a,2,3,4,5,6,7,8,9,10,12,17,17a,18,19,19a-hexadecahydro-1H-2,5-diaza-bicyclo[13.1.0]hexadec-1(15)-eno[5,4-b]isoquinoline-19a-carboxylic acid], the IC50 under setting [1] is above 10 µM. As for `CN1CCC(N(C2CC2)S(=O)(=O)NC(=O)[C@@]23C[C@H]2/C=C\CCCCC[C@H](NC(=O)OC(C)(C)C)C(=O)N2CCC[C@H]2C(=O)N3)CC1` [Compound 2211], under setting [1], the IC50 is below 1 µM. Regarding `CC(C)(C)C(O)C(=O)N[C@H]1CCCCC/C=C\[C@@H]2C[C@@]2(C(=O)NS(=O)(=O)C2CC2)NC(=O)[C@@H]2C[C@@H](OC(=O)N3Cc4cccc(F)c4C3)CN2C1=O` (single isomer, unassigned) [Compound 248], the IC50 under setting [1] was below 0.1 µM.

On to `O=C(N[C@H]1CCCCC/C=C\[C@@H]2C[C@@]2(C(=O)O)NC(=O)[C@@H]2CCCN2C1=O)C1CC1` [Compound 315], for which the concentration for half-maximal inhibition (IC50) under setting [1] was below 10 µM. Turning to `CC(C)(C)OC(=O)N[C@H]1CCCCC/C=C\[C@@H]2C[C@@]2(C(=O)NS(=O)(=O)c2cccs2)NC(=O)[C@@H]2CCCN2C1=O` [Compound 2136], the IC50 under setting [1] is below 10 µM. With `CC(C)(C)OC(=O)N[C@H]1CCCCC/C=C\[C@@H]2C[C@@]2(C(=O)Nc2cccc(Cl)c2)NC(=O)[C@@H]2CCCN2C1=O` [Compound 2317], the IC50 under setting [2] is below 1 µM. As for `CC(C)(C)OC(=O)N[C@H]1CCCCC/C=C\[C@@H]2C[C@@]2(C(=O)NS(=O)(=O)c2cccc3c(Cl)cccc23)NC(=O)[C@@H]2CCCN2C1=O` [Compound 309], under setting [1], the IC50 was below 10 µM. Regarding `CC[C@@H]1C[C@H]2C(=O)N[C@]3(C(=O)NS(=O)(=O)C4CC4)C[C@H]3/C=C\CCCCC[C@H](NC(=O)OC(C)(C)C)C(=O)N2C1` [Compound 2145], under setting [1], the IC50 is above 10 µM. In the case of `CC(C)(C)OC(=O)N[C@H]1CCC(O)CC/C=C\[C@@H]2C[C@@]2(C(=O)NS(=O)(=O)C2CC2)NC(=O)[C@@H]2C[C@@H](OC(=O)N3Cc4cccc(F)c4C3)CN2C1=O` (some centres unmarked) [Compound 1018], the IC50 is below 0.1 µM. For `COc1c(C(=O)O)csc1S(=O)(=O)NC(=O)[C@@]12C[C@H]1/C=C\CCCCC[C@H](NC(=O)OC(C)(C)C)C(=O)N1CCC[C@H]1C(=O)N2` [Compound 311], the IC50 under setting [1] is below 10 µM. With `CC(C)CNC(=O)[C@@]12C[C@H]1/C=C\CCCCC[C@H](NC(=O)OC(C)(C)C)C(=O)N1CCC[C@H]1C(=O)N2` [Compound 2314], the IC50 under setting [2] was below 1 µM. As to `COc1ccccc1NS(=O)(=O)NC(=O)[C@@]12C[C@H]1/C=C\CCCCC[C@H](NC(=O)OC(C)(C)C)C(=O)N1CCC[C@H]1C(=O)N2` [Compound 2236], under setting [1], the IC50 is below 1 µM.

Take `COc1cccc(CCNS(=O)(=O)NC(=O)[C@@]23C[C@H]2/C=C\CCCCC[C@H](NC(=O)OC(C)(C)C)C(=O)N2CCC[C@H]2C(=O)N3)c1` [Compound 414]: the IC50 under setting [1] is above 10 µM.

Take `CC(C)(C)OC(=O)NC1CCCCCC=CC2CC2(C(=O)NCc2cccc(Cl)c2)NC(=O)C2CCCN2C1=O` (centres unmarked) [Compound 2309]: under setting [2], the IC50 was below 1 µM.

Regarding `O=C(N[C@H]1CCCCCCC[C@@H]2C[C@@]2(C(=O)NS(=O)(=O)c2ccccc2)NC(=O)C2Cc3cc(Oc4cccc(Cl)c4)ccc3CN2C1=O)OC1CCCC1` (stereo partly drawn) [Compound 2010, Cyclopentyl (1aR,9S,19aR)-15-(3-chlorophenoxy)-10,18-dioxo-19a-(phenylsulfonylcarbamoyl)-1a,2,3,4,5,6,7,8,9,10,12,17,17a,18,19,19a-hexadecahydro-1H-2,5-diaza-bicyclo[13.1.0]hexadec-1(15)-eno[5,4-b]isoquinolin-9-ylcarbamate], the IC50 under setting [1] was below 10 µM.

On to `CN(C)c1ccc(S(=O)(=O)NC(=O)[C@@]23C[C@H]2/C=C\CCCCC[C@H](NC(=O)OC2CCCC2)C(=O)N2C[C@H](OC(=O)N4CCc5ccccc5C4)C[C@H]2C(=O)N3)cc1` [Compound 183], for which, under setting [1], the half-inhibitory concentration (IC50) is below 0.1 µM.

For `CC(C)(C)OC(=O)N[C@H]1CCCCC/C=C\[C@@H]2C[C@@]2(C(=O)NCC(O)(C(F)(F)F)C(F)(F)F)NC(=O)[C@@H]2CCCN2C1=O` [Compound 503], the IC50 under setting [1] was above 10 µM.

Consider `COc1cccc(S(=O)(=O)NC(=O)[C@@]23C[C@H]2/C=C\CCCCC[C@H](NC(=O)OC2CCCC2)C(=O)N2C[C@H](OC(=O)N4CCc5ccccc5C4)C[C@H]2C(=O)N3)c1` [Compound 188], for which, under setting [1], the IC50 is below 0.1 µM.

The compound `CC(C)(C)OC(=O)N[C@H]1COCCC/C=C\[C@@H]2C[C@@]2(C(=O)NS(=O)(=O)C2CC2)NC(=O)[C@@H]2C[C@@H](OC(=O)N3Cc4cccc(Cl)c4C3)CN2C1=O` [Compound 1025] returned an IC50 below 0.1 µM. As for `CCOC(=O)[C@@]12C[C@H]1/C=C\CCCCC[C@H](N)C(=O)N1C[C@H](OC(=O)N3Cc4ccc(OCCN5CCOCC5)cc4C3)C[C@H]1C(=O)N2` [Compound 126], the IC50 under setting [1] is above 10 µM. The same measure, in the same setting: the same measure for `CN(c1ccccc1)S(=O)(=O)NC(=O)[C@@]12C[C@H]1/C=C\CCCCC[C@H](NC(=O)OC(C)(C)C)C(=O)N1CCC[C@H]1C(=O)N2` [Compound 2227]: below 10 µM; for `CC(C)(C)OC(=O)N[C@H]1CCCCC/C=C\[C@@H]2C[C@@]2(C(=O)NS(=O)(=O)Nc2ccccc2Cl)NC(=O)[C@@H]2CCCN2C1=O` [Compound 2233]: below 1 µM.

For `CC(C)(C)OC(=O)N[C@H]1CCCCC/C=C\[C@@H]2C[C@@]2(C(=O)NS(=O)(=O)NCCc2cccnc2)NC(=O)[C@@H]2CCCN2C1=O` [Compound 424], under setting [1], the IC50 was above 10 µM. In the case of `CC(C)(C)OC(=O)N[C@H]1CCCCC/C=C\[C@@H]2C[C@@]2(C(=O)NCC2CC2)NC(=O)[C@@H]2C[C@@H](OC(=O)N3Cc4ccccc4C3)CN2C1=O` [Compound 2501, (1S,4R,6S,14S,18R)-1,3-Dihydro-isoindole-2-carbonyloxylic acid 14-tert-butoxycarbonylamino-4-cyclopropylmethanaminocarbonyl-2,15-dioxo-3,16-diaza-tricyclo[14.3.0.0^4,6]nonadec-7-ene-18-yl ester], where the note is “Table 24, read-out: NS3-NS4 IC50”, the IC50 is above 10 µM. As to `CC(C)(C)OC(=O)N[C@H]1CCCCC/C=C\[C@@H]2C[C@@]2(C(=O)N[S@+]([O-])C(C)(C)C)NC(=O)[C@@H]2C[C@@H](OC(=O)N3Cc4ccccc4C3)CN2C1=O` [Compound 2604], the IC50 (Table 25, read-out: NS3-NS4 IC50) was above 10 µM. As to `COc1ccccc1S(=O)(=O)NC(=O)[C@@]12C[C@H]1/C=C\CCCCC[C@H](NC(=O)OC(C)(C)C)C(=O)N1CCC[C@H]1C(=O)N2` [Compound 2122], the IC50 under setting [1] was below 1 µM. For `CN(Cc1ccccc1)S(=O)(=O)NC(=O)[C@@]12C[C@H]1/C=C\CCCCC[C@H](NC(=O)OC(C)(C)C)C(=O)N1CCC[C@H]1C(=O)N2` [Compound 417], the IC50 under setting [1] is below 10 µM.

As for `CC(C)(C)OC(=O)N[C@H]1CCCCC/C=C\[C@@H]2C[C@@]2(C(=O)NS(=O)(=O)c2cc(Cl)sc2Cl)NC(=O)[C@@H]2CCCN2C1=O` [Compound 2126], the half-inhibitory concentration (IC50) under setting [1] was below 10 µM. Same read-out and setting: the same measure for `CN(c1ccc(Cl)cc1)S(=O)(=O)NC(=O)[C@@]12C[C@H]1/C=C\CCCCC[C@H](NC(=O)OC(C)(C)C)C(=O)N1CCC[C@H]1C(=O)N2` [Compound 2226]: below 10 µM.

Consider `COc1ccccc1NC(=O)[C@@]12C[C@H]1/C=C\CCCCC[C@H](NC(=O)OC(C)(C)C)C(=O)N1CCC[C@H]1C(=O)N2` [Compound 2313], for which, under setting [2], the IC50 was below 1 µM.

As to `Cc1ccc([S@+]([O-])NC(=O)[C@@]23C[C@H]2/C=C\CCCCC[C@H](NC(=O)OC(C)(C)C)C(=O)N2CCC[C@H]2C(=O)N3)cc1` [Compound 2402], the IC50 under setting [1] is below 0.1 µM. With `CC(C)(C)OC(=O)N[C@H]1CCCCC/C=C\[C@@H]2C[C@@]2(C(=O)NS(=O)(=O)NC2CC2)NC(=O)[C@@H]2CCCN2C1=O` [Compound 2201], the IC50 under setting [1] was below 1 µM. For the compound `Cc1ccc(NC(=O)[C@@]23C[C@H]2/C=C\CCCCC[C@H](NC(=O)OC(C)(C)C)C(=O)N2CCC[C@H]2C(=O)N3)cc1` [Compound 2316], the IC50 under setting [2] is below 1 µM.
